The assay concerns CyPPO8 variant. The assay is described as follows: Growth inhibition of BT3(ΔPPO) E. coli transformed with 98% homology variant, LB solid medium. It is filed as cell-based, Halothece sp. PCC 7418. The note with it: 1% agar LB solid medium, 37° C., 14~16 hours, light. The text has this:
To investigate amino acid sequence homology range of CyPPO2, CyPPO4 and CyPPO8 which maintain herbicide resistance, a part of the amino acid sequence of CyPPO2, CyPPO4 or CyPPO8 protein was replaced by a part of the amino acid sequence of NtPPO (tobacco-derived PPO gene). As a result, the amino acid sequence of the resulting CyPPO2 variant is represented by SEQ ID NO: 12, and its nucleotide sequence thereof is represented by SEQ ID NO: 13. […] Further, the amino acid sequence of the CyPPO4 variant is represented by SEQ ID NO: 14, and its nucleotide sequence thereof is represented by SEQ ID NO: 15. […] Further, the amino acid sequence of the CyPPO8 variant is represented by SEQ ID NO: 16, and its nucleotide sequence thereof is represented by SEQ ID NO: 17.
Herbicide resistance of the amino acid sequence variant of CyPPO2, the amino acid sequence variant of CyPPO4, and the amino acid sequence variant of CyPPO8 was investigated in PPO-deficient BT3 E. coli [BT3(ΔPPO)], and a specific experimental method is similar to that of Example 3. In the same manner as in Example 3, as a negative control, the wild-type PPO (wild-type AtPPO1) of Arabidopsis thaliana was employed as a reference for herbicide-sensitivity. As a positive control, the mutant AtPPO1 which was prepared by amino acid replacement of Y426M and S305L in the wild-type amino acid sequence was employed as a reference for herbicide-resistance.
An autoclave was used under conditions of 121° C. and 15 minutes, and an incubator was used at 37° C. with lighting of 169 μmol m^−2 s^−1 for a culture time of 14˜16 hours. A UV-visible spectrophotometer was used at 600 nm. PCR was performed under conditions of at 94° C. for 4 minutes, and 25 cycles (at 94° C. for 30 seconds, at 56˜60° C. for 30 seconds and at 72° C. for 3 minutes), at 72° C. for 5 minutes and at 4° C. for 5 minutes. Respective herbicides were prepared at a concentration of 200 mM in DMSO, and stored at −20° C. Before use, the herbicides were diluted and added to LB broth medium (containing […]).
Saturated cells were inoculated in 3 ml of LB liquid medium containing chloramphenicol, and then cultured at 37° C., 200 rpm for 5 hours. Density of the cultured cells was measured at 600 nm, and the transformants were diluted with LB liquid medium to have the same absorbance (OD600) per 1 ml thereof (OD600=0.5). Agar was added to LB liquid medium at a concentration of 1%, and then autoclaved. Chloramphenicol (34 μg/ml) and herbicide were added and mixed. Cells diluted equally was diluted at a density of 10^0, 10^−1, 10^−2, 10^−3, 10^−4, and 10^−5. Each 10 μl of the cells was dropped on 1% agar, LB solid medium, and cultured in a 37° C. incubator for 14˜16 hours (light condition: 169 μmol m^−2s^−1).
To prepare BT3(ΔPPO) competent cells, BT3(ΔPPO) strain was added to 5 ml of LB broth containing 50 μg/ml kanamycin and 20 μg/ml hematin, and cultured in a 37° C. shaking incubator for 12 hours in the dark. Thereafter, 5 ml of the culture was added to 100 ml of LB broth containing 20[…] μg/ml hematin, and cultured in a 37° C. shaking incubator in the dark until OD600 reached 0.5. BT3(ΔPPO) competent cells were prepared from the cultured E. coli using CaCl2 according to protocols for preparing competent cells. Next, to transform the BT3(ΔPPO) strain with the respective vectors harboring the CyPPO2 variant, CyPPO4 variant and CyPPO8 variant, 5 μl of the vector was added to 100 μl of BT3(ΔPPO) competent cells, and the mixture was mixed well, allowed to react on ice for 20 minutes, and then left at 42° C. for 40 seconds. After stabilization on ice for 2 minutes, 1 ml of LB broth was added to BT3(ΔPPO), and cultured at 37° C. for 1 hour with shaking. The cells cultured in the medium were collected according to the type of the gene insert, and then spread on LB solid medium containing chloramphenicol (34 μg/ml), and cultured at 37° C. for 12 hours or longer. Thereafter, single colonies thereof were cultured in LB liquid medium. […]
For the compound `O=C(O)c1cc(Oc2ccc(C(F)(F)F)cc2Cl)ccc1[N+](=O)[O-]` [Acifluorfen], the “concentration at which growth inhibition was hardly observed” value was found to be 25 µM.
For the compound `C=CCOC(=O)C(C)(C)OC(=O)c1cc(-n2c(=O)cc(C(F)(F)F)n(C)c2=O)ccc1Cl` [Butafenacil], the “concentration at which growth inhibition was hardly observed” value amounted to 25 µM.
Next, `C#CCN1C(=O)COc2cc(F)c(N3C(=O)C4=C(CCCC4)C3=O)cc21` [Flumioxazin]: 25 µM; `COC(=O)CSc1cc(/N=c2\sc(=O)n3n2CCCC3)c(F)cc1Cl` [Fluthiacet-methyl]: 25 µM; `CS(=O)(=O)NC(=O)c1cc(Oc2ccc(C(F)(F)F)cc2Cl)ccc1[N+](=O)[O-]` [Fomesafen]: 25 µM.
Next, `CC(C)Oc1cc(-n2nc(C(C)(C)C)oc2=O)c(Cl)cc1Cl` [Oxadiazon]: 25 µM.
For the compound `CCOc1cc(Oc2ccc(C(F)(F)F)cc2Cl)ccc1[N+](=O)[O-]` [Oxyfluorfen], the “concentration at which growth inhibition was hardly observed” value amounted to 25 µM.
Next, `CC(C)=C1OC(=O)N(c2cc(OC3CCCC3)c(Cl)cc2F)C1=O` [Pentoxazone]: 25 µM.
Then `C#CCN(C)c1c(C#N)cnn1-c1nn2c(c1Cl)CCCC2` [Pyraclonil], with 25 µM; and `CCOC(=O)COc1cc(-c2nn(C)c(OC(F)F)c2Cl)c(F)cc1Cl` [Pyraflufen-ethyl], with 25 µM.
Then `CC(C)N(C)S(=O)(=O)NC(=O)c1cc(-n2c(=O)cc(C(F)(F)F)n(C)c2=O)c(F)cc1Cl` [Saflufenacil], with 25 µM; and `Cc1nn(-c2cc(NS(C)(=O)=O)c(Cl)cc2Cl)c(=O)n1C(F)F` [Sulfentrazone], with 25 µM.
Consider `COC(=O)CCNC(=O)C(C)Sc1cc(-n2c(=O)cc(C(F)(F)F)n(C)c2=O)c(F)cc1Cl` (stereo not shown) [Tiafenacil], for which the “concentration at which growth inhibition was hardly observed” value stood at 25 µM.

For the origin of these results see US11130960B2, “Methods for conferring or enhancing herbicide resistance on plants and/or alga with protoporphyrinogen oxidase variants” (FARM HANNONG CO., LTD., priority 2014, dated 2021).
